Assay results: paper PMC12514573, “The bacterial tRNA-modifying enzyme tRNA^Ile lysidine synthetase is genetically conserved but catalytically variable” (The Journal of Biological Chemistry, 2025)

Key:
Format in all cases: biochemical
[1] = molecular target: T1, GkMetRS (Geobacillus kaustophilus, UniProt Q5L3W2); assay: tRNA methionylation (aminoacylation); conditions: cognate tRNA(Met) transcript; assay details not given
T1 construct: gene metG; recombinant, cloned metS gene; details not in main text

[2] = molecular target: T2, BcMetRS (Burkholderia cenocepacia, UniProt A0K9L0); assay: tRNA methionylation (aminoacylation); conditions: cognate tRNA(Met) transcript; assay details not given
T2 construct: gene metG; recombinant, cloned metS gene; details not in main text
T2 sequence (A0K9L0 1-718): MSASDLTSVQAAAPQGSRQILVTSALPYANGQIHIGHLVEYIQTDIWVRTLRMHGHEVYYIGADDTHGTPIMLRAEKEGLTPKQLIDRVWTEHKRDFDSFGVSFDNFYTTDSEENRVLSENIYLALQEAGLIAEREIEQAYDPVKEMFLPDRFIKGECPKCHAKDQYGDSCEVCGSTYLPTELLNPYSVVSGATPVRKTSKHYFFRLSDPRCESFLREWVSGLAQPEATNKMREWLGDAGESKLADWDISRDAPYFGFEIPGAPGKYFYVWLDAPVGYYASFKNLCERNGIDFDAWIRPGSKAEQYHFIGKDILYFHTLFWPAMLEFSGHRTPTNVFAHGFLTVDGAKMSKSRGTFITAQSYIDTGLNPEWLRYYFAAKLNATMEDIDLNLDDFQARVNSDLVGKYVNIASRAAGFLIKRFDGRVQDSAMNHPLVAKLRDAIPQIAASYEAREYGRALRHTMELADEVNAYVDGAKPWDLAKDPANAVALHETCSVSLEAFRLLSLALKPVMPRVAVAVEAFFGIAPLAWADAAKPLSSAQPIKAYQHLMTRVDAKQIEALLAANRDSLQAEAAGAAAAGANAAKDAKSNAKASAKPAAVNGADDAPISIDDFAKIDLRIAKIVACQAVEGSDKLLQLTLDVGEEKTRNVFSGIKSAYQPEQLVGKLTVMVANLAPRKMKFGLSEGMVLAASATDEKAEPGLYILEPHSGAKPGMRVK

[3] = molecular target: T3, PaMetRS (Pseudomonas aeruginosa, UniProt Q9HYC7); assay: tRNA methionylation (aminoacylation); conditions: cognate tRNA(Met) transcript; assay details not given
T3 construct: gene metG; recombinant, cloned metS gene; details not in main text
T3 sequence (Q9HYC7 1-677): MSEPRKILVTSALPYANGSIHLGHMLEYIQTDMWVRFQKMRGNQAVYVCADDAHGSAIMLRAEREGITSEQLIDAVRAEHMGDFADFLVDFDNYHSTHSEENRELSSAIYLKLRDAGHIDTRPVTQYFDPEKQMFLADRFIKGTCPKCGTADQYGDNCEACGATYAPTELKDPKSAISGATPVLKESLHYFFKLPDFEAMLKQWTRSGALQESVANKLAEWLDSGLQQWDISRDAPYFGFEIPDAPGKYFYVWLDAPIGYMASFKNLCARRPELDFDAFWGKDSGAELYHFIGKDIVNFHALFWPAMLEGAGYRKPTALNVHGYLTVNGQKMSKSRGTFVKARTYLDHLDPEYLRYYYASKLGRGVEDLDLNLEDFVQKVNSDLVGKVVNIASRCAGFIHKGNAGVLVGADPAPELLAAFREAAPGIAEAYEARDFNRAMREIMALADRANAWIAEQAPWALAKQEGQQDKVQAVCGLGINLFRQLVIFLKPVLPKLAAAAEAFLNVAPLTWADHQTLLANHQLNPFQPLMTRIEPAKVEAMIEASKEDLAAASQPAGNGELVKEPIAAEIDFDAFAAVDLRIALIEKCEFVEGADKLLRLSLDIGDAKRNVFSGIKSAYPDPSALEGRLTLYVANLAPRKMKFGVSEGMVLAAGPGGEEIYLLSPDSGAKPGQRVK

[4] = molecular target: T4, EcTilS (Escherichia coli, UniProt P52097); assay: 3H-lysine incorporation into tRNA, filter scintillation; conditions: labelled compound; cognate tRNA(Ile2) transcript, 2 mM ATP, 10 mM MgCl2, 10 mM KCl, pH 9.0
T4 construct: gene tilS; recombinant, pET-28a, Rosetta II E. coli; strain source only in supplement (codon-usage genome W3110)
T4 sequence (P52097 1-432): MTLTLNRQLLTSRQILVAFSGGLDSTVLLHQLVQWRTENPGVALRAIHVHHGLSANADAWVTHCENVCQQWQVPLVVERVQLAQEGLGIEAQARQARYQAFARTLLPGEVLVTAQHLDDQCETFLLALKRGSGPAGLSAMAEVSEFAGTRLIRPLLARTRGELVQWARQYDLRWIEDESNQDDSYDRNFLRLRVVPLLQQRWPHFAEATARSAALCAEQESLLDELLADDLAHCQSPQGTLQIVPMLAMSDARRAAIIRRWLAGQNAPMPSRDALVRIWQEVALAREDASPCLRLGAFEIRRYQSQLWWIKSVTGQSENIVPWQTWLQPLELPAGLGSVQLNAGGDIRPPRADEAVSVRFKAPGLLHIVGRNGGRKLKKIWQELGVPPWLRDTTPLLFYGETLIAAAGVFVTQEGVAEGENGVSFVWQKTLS

[5] = molecular target: T5, MsTilS (Mycolicibacterium smegmatis, UniProt A0R594); assay: as above; conditions: labelled compound; cognate tRNA(Ile2) transcript, 2 mM ATP, 10 mM MgCl2, 10 mM KCl, pH 8.5
T5 construct: gene tilS; type II TilS, lacks CTD2 naturally; recombinant, Rosetta II E. coli; strain source only in supplement (codon-usage genome MG(2)155)
T5 sequence (A0R594 1-322): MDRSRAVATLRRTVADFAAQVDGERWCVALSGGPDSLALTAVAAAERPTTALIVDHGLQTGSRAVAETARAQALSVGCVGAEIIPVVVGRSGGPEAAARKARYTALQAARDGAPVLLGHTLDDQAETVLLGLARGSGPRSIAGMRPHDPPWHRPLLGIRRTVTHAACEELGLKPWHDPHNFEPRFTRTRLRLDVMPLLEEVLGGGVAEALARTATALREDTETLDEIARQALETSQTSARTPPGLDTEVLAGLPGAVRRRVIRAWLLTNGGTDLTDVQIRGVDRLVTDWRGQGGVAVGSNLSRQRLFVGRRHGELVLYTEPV

[6] = molecular target: T6, PaTilS (Pseudomonas aeruginosa, UniProt Q9HXZ3); assay: as above; conditions: labelled compound; cognate tRNA(Ile2) transcript, 2 mM ATP, 10 mM MgCl2, 10 mM KCl, pH 9.0
T6 construct: gene tilS; recombinant, pET-28a, Rosetta II E. coli; strain source only in supplement (codon-usage genome PAO1)
T6 sequence (Q9HXZ3 1-442): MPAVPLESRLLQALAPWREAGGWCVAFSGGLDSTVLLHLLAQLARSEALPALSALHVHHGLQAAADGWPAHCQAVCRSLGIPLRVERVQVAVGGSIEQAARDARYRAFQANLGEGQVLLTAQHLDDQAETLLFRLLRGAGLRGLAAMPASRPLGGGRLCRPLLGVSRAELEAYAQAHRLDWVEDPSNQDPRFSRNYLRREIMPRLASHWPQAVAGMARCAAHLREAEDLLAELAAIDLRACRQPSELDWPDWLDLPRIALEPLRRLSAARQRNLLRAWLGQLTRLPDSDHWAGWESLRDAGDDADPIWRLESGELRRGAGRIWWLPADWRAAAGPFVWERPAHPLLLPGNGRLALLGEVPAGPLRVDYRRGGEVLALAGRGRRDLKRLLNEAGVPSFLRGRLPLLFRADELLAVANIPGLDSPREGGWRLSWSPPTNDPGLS

[7] = molecular target: T7, GkTilS (Geobacillus kaustophilus, UniProt Q5L3T3); assay: as above; conditions: labelled compound; cognate tRNA(Ile2) transcript, 2 mM ATP, 10 mM MgCl2, 10 mM KCl, pH 9.0
T7 construct: gene tilS; recombinant, pET-28a, Rosetta II E. coli; strain source only in supplement (codon-usage genome HTA426)
T7 sequence (Q5L3T3 1-464): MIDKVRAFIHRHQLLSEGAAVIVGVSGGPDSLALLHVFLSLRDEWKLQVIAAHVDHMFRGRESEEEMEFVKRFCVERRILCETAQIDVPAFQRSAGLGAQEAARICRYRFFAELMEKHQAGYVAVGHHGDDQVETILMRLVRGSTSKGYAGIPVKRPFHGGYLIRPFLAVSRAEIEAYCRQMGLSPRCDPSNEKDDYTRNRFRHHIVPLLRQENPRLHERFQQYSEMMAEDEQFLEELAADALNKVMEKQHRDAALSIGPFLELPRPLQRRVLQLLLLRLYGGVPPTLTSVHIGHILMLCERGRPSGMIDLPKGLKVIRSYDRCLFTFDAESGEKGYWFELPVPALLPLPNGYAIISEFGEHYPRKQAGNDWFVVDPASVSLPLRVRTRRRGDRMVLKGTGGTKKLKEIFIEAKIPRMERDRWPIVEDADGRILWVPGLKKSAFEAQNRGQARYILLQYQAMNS

[8] = molecular target: T8, HpTilS (Helicobacter pylori, UniProt O25428); assay: as above; conditions: labelled compound; cognate tRNA(Ile2) transcript, 2 mM ATP, 10 mM MgCl2, 10 mM KCl, pH 8.5
T8 construct: gene tilS; type II TilS; recombinant, Rosetta II E. coli; strain source only in supplement (codon-usage genome 26695)
T8 sequence (O25428 1-336): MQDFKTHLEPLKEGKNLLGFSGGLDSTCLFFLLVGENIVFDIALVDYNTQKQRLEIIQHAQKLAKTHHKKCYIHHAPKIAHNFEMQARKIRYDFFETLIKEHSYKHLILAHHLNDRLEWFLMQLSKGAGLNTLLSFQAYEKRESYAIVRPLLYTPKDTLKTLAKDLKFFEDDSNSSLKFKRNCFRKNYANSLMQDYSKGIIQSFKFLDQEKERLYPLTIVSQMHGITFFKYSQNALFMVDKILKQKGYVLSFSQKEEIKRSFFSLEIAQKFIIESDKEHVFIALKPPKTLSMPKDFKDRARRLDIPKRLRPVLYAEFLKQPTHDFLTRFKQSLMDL

[9] = molecular target: T9, BfTilS (Bacteroides fragilis, UniProt Q5LFM6); assay: as above; conditions: labelled compound; cognate tRNA(Ile2) transcript, 2 mM ATP, 10 mM MgCl2, 10 mM KCl, pH 8.5
T9 construct: gene tilS; recombinant, pET-28a, Rosetta II E. coli; strain source only in supplement (codon-usage genome NCTC9343)
T9 sequence (Q5LFM6 1-435): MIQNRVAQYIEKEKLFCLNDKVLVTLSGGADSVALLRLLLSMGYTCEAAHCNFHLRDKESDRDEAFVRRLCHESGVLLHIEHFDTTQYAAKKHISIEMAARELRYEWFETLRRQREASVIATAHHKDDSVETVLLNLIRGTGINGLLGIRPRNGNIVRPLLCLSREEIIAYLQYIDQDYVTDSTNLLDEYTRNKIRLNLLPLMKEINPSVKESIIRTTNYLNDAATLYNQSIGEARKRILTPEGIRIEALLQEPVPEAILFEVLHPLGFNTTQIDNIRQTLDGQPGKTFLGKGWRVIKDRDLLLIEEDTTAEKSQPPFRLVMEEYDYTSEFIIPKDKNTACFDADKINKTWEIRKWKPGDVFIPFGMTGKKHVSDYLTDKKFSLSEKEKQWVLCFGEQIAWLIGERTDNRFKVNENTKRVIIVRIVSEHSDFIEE

[10] = molecular target: T10, BcTilS (Burkholderia cenocepacia, UniProt B4ED70); assay: as above; conditions: labelled compound; cognate tRNA(Ile2) transcript, 2 mM ATP, 10 mM MgCl2, 10 mM KCl, pH 9.0
T10 construct: gene tilS; recombinant, pET-28a, Rosetta II E. coli; strain source only in supplement (codon-usage genome HI2424)
T10 sequence (B4ED70 1-473): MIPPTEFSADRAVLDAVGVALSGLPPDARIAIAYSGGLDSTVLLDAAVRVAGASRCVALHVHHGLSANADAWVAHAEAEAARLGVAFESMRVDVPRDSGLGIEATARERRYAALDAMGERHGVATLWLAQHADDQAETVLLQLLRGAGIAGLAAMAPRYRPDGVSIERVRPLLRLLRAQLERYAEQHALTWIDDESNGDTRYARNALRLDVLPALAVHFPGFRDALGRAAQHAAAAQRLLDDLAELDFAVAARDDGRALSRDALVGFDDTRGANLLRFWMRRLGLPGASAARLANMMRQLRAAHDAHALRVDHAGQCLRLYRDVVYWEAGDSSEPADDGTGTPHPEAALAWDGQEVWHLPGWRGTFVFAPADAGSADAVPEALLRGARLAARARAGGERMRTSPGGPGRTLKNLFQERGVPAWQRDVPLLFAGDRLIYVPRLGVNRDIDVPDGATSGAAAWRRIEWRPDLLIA

T1 sequence (Q5L3W2 1-650): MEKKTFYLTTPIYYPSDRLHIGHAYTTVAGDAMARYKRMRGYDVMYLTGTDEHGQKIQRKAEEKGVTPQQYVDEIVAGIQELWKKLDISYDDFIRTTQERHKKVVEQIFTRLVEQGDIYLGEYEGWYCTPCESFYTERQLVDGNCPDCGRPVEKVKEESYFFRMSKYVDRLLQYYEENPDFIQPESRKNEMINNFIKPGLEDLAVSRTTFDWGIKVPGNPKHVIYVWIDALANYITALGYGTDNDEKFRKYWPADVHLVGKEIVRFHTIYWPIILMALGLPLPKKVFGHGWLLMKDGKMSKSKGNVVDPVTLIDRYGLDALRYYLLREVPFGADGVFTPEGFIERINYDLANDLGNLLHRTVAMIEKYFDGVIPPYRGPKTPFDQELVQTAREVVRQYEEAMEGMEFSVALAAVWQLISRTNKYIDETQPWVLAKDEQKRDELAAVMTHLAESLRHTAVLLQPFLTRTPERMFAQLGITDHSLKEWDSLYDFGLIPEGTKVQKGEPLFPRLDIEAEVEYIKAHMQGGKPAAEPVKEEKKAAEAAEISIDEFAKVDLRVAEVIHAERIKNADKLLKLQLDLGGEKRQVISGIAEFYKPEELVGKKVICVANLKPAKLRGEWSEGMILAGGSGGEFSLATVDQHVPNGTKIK

Row | Compound | tRNA methionylation (aminoacylation) [1] | tRNA methionylation (aminoacylation) [2] | tRNA methionylation (aminoacylation) [3] | 3H-lysine incorporation into tRNA, filter scintillation [4] | 3H-lysine incorporation into tRNA, filter scintillation [5] | 3H-lysine incorporation into tRNA, filter scintillation [6] | 3H-lysine incorporation into tRNA, filter scintillation [7] | 3H-lysine incorporation into tRNA, filter scintillation [8] | 3H-lysine incorporation into tRNA, filter scintillation [9] | 3H-lysine incorporation into tRNA, filter scintillation [10]
1 | CSCC[C@H](N)C(=O)O [methionine] | evaluated the methionylation activity toward cognate tRNA^Met and near-cognate tRNA^Ile2 substrates | evaluated the methionylation activity toward cognate tRNA^Met and near-cognate tRNA^Ile2 substrates | evaluated the methionylation activity toward cognate tRNA^Met and near-cognate tRNA^Ile2 substrates | – | – | – | – | – | – | –
2 | NCCCC[C@H](N)C(=O)O [L-lysine] | – | – | – | Filters were counted by liquid scintillation to quantify lysine incorporation into transcript tRNA. | Filters were counted by liquid scintillation to quantify lysine incorporation into transcript tRNA. | Filters were counted by liquid scintillation to quantify lysine incorporation into transcript tRNA. | Filters were counted by liquid scintillation to quantify lysine incorporation into transcript tRNA. | Filters were counted by liquid scintillation to quantify lysine incorporation into transcript tRNA. | Filters were counted by liquid scintillation to quantify lysine incorporation into transcript tRNA. | Filters were counted by liquid scintillation to quantify lysine incorporation into transcript tRNA.
